# From the supplement of paper PMC10307832
# Tests used:
# Experiment in all cases: relative viability (nuclei count vs DMSO), 5 days (fraction); higher = more cells survive
# [1] = test system: NCI-H322M
# Summary of the method: (§1)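 The day after seeding in 1536-well plates, lung cancer cell lines were treated by pin tool with a single drug, or with a fixed anchor-drug dose together with five library-drug doses (not always all listed) in √10 steps. After 5 days, a combined fix-and-stain solution (final 0.05% Triton X-100, 1% formaldehyde, 1 ug/ml Hoechst) was added. Nuclei counted on 4× images gave relative viability as treated counts over vehicle counts, reported as the median of duplicate plates.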
# [2] = test system: NCI-H2170
# Summary of the method: as §1
# [3] = test system: NCI-H441
# Summary of the method: as §1
# [4] = test system: NCI-H1650
# Summary of the method: as §1
# [5] = test system: NCI-H2023
# Summary of the method: as §1
# [6] = test system: 201T
# Summary of the method: as §1
# [7] = test system: EPLC-272H
# Summary of the method: as §1
# [8] = test system: HCC-15
# Summary of the method: as §1
# [9] = test system: NCI-H2347
# Summary of the method: as §1
# [10] = test system: SW 900
# Summary of the method: as §1
# [11] = test system: COR-L23
# Summary of the method: as §1
# [12] = test system: NCI-H647
# Summary of the method: as §1
# [13] = test system: H3255
# Summary of the method: as §1
# [14] = test system: NCI-H520
# Summary of the method: as §1
# [15] = test system: UMC-11
# Summary of the method: as §1
# [16] = test system: NCI-H2405
# Summary of the method: as §1
# [17] = test system: LOU-NH91
# Summary of the method: as §1
# [18] = test system: NCI-H1734
# Summary of the method: as §1
# [19] = test system: NCI-H1793
# Summary of the method: as §1
# [20] = test system: PC-14
# Summary of the method: as §1
# [21] = test system: NCI-H3122
# Summary of the method: as §1
structure (smiles),measurement,setting,value
CC(=O)O[C@@]12CO[C@@H]1C[C@H](O)[C@@]1(C)C(=O)[C@H](O)C3=C(C)[C@@H](OC(=O)[C@H](O)[C@@H](NC(=O)OC(C)(C)C)c4ccccc4)C[C@@](O)([C@@H](OC(=O)c4ccccc4)[C@H]21)C3(C)C [Docetaxel] + CC(=O)c1c(C)c2cnc(Nc3ccc(N4CCNCC4)cn3)nc2n(C2CCCC2)c1=O [Palbociclib] (partner 0.5 µM),relative viability,[1]; first compound 0.0002 µM,0.469
same,relative viability,[1]; first compound 0.000632 µM,0.448
same,relative viability,[1]; first compound 0.002 µM,0.471
same,relative viability,[1]; first compound 0.006325 µM,0.468
same,relative viability,[1]; first compound 0.02 µM,0.438
same,relative viability,[2]; first compound 0.0002 µM,0.409
same,relative viability,[2]; first compound 0.000632 µM,0.383
same,relative viability,[2]; first compound 0.002 µM,0.306
same,relative viability,[2]; first compound 0.006325 µM,0.188
same,relative viability,[2]; first compound 0.02 µM,0.171
same,relative viability,[3]; first compound 0.0002 µM,0.215
same,relative viability,[3]; first compound 0.000632 µM,0.218
same,relative viability,[3]; first compound 0.002 µM,0.209
same,relative viability,[3]; first compound 0.006325 µM,0.2
same,relative viability,[3]; first compound 0.02 µM,0.132
same,relative viability,[4]; first compound 0.0002 µM,0.257
same,relative viability,[4]; first compound 0.000632 µM,0.263
same,relative viability,[4]; first compound 0.002 µM,0.207
same,relative viability,[4]; first compound 0.006325 µM,0.216
same,relative viability,[4]; first compound 0.02 µM,0.138
same,relative viability,[5]; first compound 0.0002 µM,0.357
same,relative viability,[5]; first compound 0.000632 µM,0.339
same,relative viability,[5]; first compound 0.002 µM,0.101
same,relative viability,[5]; first compound 0.006325 µM,0.0906
same,relative viability,[5]; first compound 0.02 µM,0.0705
same,relative viability,[6]; first compound 0.0002 µM,0.357
same,relative viability,[6]; first compound 0.000632 µM,0.369
same,relative viability,[6]; first compound 0.002 µM,0.367
same,relative viability,[6]; first compound 0.006325 µM,0.388
same,relative viability,[6]; first compound 0.02 µM,0.335
same,relative viability,[7]; first compound 0.0002 µM,0.374
same,relative viability,[7]; first compound 0.000632 µM,0.341
same,relative viability,[7]; first compound 0.002 µM,0.236
same,relative viability,[7]; first compound 0.006325 µM,0.204
same,relative viability,[7]; first compound 0.02 µM,0.148
same,relative viability,[8]; first compound 0.0002 µM,0.643
same,relative viability,[8]; first compound 0.000632 µM,0.383
same,relative viability,[8]; first compound 0.002 µM,0.228
same,relative viability,[8]; first compound 0.006325 µM,0.247
same,relative viability,[9]; first compound 0.0002 µM,0.375
same,relative viability,[9]; first compound 0.000632 µM,0.429
same,relative viability,[9]; first compound 0.002 µM,0.408
same,relative viability,[9]; first compound 0.006325 µM,0.373
same,relative viability,[9]; first compound 0.02 µM,0.343
same,relative viability,[10]; first compound 0.0002 µM,0.511
same,relative viability,[10]; first compound 0.000632 µM,0.308
same,relative viability,[10]; first compound 0.002 µM,0.354
same,relative viability,[10]; first compound 0.006325 µM,0.332
same,relative viability,[10]; first compound 0.02 µM,0.264
same,relative viability,[11]; first compound 0.0002 µM,0.299
same,relative viability,[11]; first compound 0.000632 µM,0.262
same,relative viability,[11]; first compound 0.002 µM,0.142
same,relative viability,[11]; first compound 0.006325 µM,0.141
same,relative viability,[11]; first compound 0.02 µM,0.108
same,relative viability,[12]; first compound 0.0002 µM,0.3
same,relative viability,[12]; first compound 0.000632 µM,0.387
same,relative viability,[12]; first compound 0.002 µM,0.11
same,relative viability,[12]; first compound 0.006325 µM,0.0808
same,relative viability,[12]; first compound 0.02 µM,0.062
same,relative viability,[13]; first compound 0.0002 µM,0.323
same,relative viability,[13]; first compound 0.000632 µM,0.304
same,relative viability,[13]; first compound 0.002 µM,0.296
same,relative viability,[13]; first compound 0.006325 µM,0.308
same,relative viability,[13]; first compound 0.02 µM,0.282
same,relative viability,[14]; first compound 0.0002 µM,0.192
same,relative viability,[14]; first compound 0.000632 µM,0.253
same,relative viability,[14]; first compound 0.002 µM,0.209
same,relative viability,[14]; first compound 0.006325 µM,0.189
same,relative viability,[14]; first compound 0.02 µM,0.122
same,relative viability,[15]; first compound 0.0002 µM,0.322
same,relative viability,[15]; first compound 0.000632 µM,0.357
same,relative viability,[15]; first compound 0.002 µM,0.294
same,relative viability,[15]; first compound 0.006325 µM,0.266
same,relative viability,[15]; first compound 0.02 µM,0.234
same,relative viability,[16]; first compound 0.0002 µM,0.525
same,relative viability,[16]; first compound 0.000632 µM,0.513
same,relative viability,[16]; first compound 0.002 µM,0.456
same,relative viability,[16]; first compound 0.006325 µM,0.401
same,relative viability,[16]; first compound 0.02 µM,0.29
same,relative viability,[17]; first compound 0.0002 µM,0.553
same,relative viability,[17]; first compound 0.000632 µM,0.534
same,relative viability,[17]; first compound 0.002 µM,0.491
same,relative viability,[17]; first compound 0.006325 µM,0.43
same,relative viability,[17]; first compound 0.02 µM,0.324
same,relative viability,[18]; first compound 0.0002 µM,0.321
same,relative viability,[18]; first compound 0.000632 µM,0.336
same,relative viability,[18]; first compound 0.002 µM,0.281
same,relative viability,[18]; first compound 0.006325 µM,0.314
same,relative viability,[18]; first compound 0.02 µM,0.23
same,relative viability,[19]; first compound 0.0002 µM,0.242
same,relative viability,[19]; first compound 0.000632 µM,0.358
same,relative viability,[19]; first compound 0.002 µM,0.347
same,relative viability,[19]; first compound 0.006325 µM,0.266
same,relative viability,[19]; first compound 0.02 µM,0.208
same,relative viability,[20]; first compound 0.0002 µM,0.466
same,relative viability,[20]; first compound 0.000632 µM,0.501
same,relative viability,[20]; first compound 0.002 µM,0.0828
same,relative viability,[20]; first compound 0.006325 µM,0.0351
same,relative viability,[20]; first compound 0.02 µM,0.0299
same,relative viability,[21]; first compound 0.0002 µM,0.184
same,relative viability,[21]; first compound 0.000632 µM,0.205
same,relative viability,[21]; first compound 0.002 µM,0.174
same,relative viability,[21]; first compound 0.006325 µM,0.187
same,relative viability,[21]; first compound 0.02 µM,0.114
